Test [1] addresses T1, contracturing effect of acetylcholine (Cavia porcellus, UniProt H0W1Z3).
T1 construct: Segments measuring 5-6 cm were drawn form the end portion of the small intestine; from tissue; host or cells: guinea pig terminal small intestine (ileum)
The experiment in a line: anticholinergic activity in vitro (contracturing effect of acetylcholine on isolated guinea pig small intestine). More on the design: species or system Guinea pigs.

For test [2], the target named is T2, contracturing effect of histamine (Cavia porcellus, UniProt P31389).
T2 construct: Segments measuring 5-6 cm were drawn form the end portion of the small intestine; from tissue; host or cells: guinea pig terminal small intestine (ileum)
T2 sequence (P31389 whole entry): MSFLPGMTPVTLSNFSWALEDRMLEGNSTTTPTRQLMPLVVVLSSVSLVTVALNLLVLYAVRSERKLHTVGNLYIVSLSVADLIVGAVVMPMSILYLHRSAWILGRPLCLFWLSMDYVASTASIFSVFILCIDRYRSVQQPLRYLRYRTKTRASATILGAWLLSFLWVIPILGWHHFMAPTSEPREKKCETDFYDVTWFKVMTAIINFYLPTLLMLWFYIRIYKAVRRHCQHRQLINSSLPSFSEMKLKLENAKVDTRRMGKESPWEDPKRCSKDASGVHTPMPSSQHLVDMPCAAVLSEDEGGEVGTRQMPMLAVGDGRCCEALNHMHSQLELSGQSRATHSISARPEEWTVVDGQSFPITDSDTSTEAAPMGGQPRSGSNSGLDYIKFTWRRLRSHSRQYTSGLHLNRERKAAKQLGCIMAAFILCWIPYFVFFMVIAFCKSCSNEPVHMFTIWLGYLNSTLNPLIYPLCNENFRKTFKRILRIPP
Kind of test: antihistaminic activity in vitro (contracturing effect of histamine on isolated guinea pig small intestine). As to conditions: vs histamine; guinea pig small intestine; 37° C.; test compounds 10^-5 M; read-out: Antihistaminic activity (pA2) (converted). More on the design: species or system Guinea pigs.

Test [3] relates to receptors for benzodiazepins. Kind of test: displacement of 3H-flunitrazepam from benzodiazepine receptors, rat cerebral cortex membranes. The format is binding. As to conditions: 3H-flunitrazepam 1nM. On the technique in general: Loss of bound radioactivity is the signal in a displacement assay; it reports binding, not function.
The test system of a further test is Ca^++ receptors. Kind of test: displacement of 3H-nitrendipine from Ca++ receptors, rat brain membranes. The format is binding. As to conditions: 3H-nitrendipine 1nM.
A further test concerns the target T3, 5-HT3 receptors (Oryctolagus cuniculus, UniProt A0A5F9C9J3).
T3 construct: from tissue; host or cells: isolated rabbit vagus nerve
T3 sequence (A0A5F9C9J3 1-494): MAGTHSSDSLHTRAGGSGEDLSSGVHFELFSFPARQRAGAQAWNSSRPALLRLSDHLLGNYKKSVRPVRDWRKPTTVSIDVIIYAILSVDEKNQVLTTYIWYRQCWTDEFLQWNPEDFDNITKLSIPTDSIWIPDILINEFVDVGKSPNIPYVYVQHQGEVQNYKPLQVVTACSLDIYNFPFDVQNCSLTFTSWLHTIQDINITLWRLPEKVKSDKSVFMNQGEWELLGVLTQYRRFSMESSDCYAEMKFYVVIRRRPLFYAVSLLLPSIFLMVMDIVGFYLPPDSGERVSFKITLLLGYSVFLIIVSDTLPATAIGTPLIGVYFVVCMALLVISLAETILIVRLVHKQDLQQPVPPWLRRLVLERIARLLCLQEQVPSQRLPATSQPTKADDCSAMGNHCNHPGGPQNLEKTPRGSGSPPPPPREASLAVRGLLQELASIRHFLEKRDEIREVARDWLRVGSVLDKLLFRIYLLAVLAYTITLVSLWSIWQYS
Kind of test: anti-5-HT3 activity in vitro on the isolated vagus nerve of rabbit. As for the experimental part: (b) Evaluation of the anti-5-HT3 activity in vitro on the vagus nerve of rabbit. Male albino New Zeland rabbits weighing about 3 kg were sacrified by an air injection in the edge auriculaers vein. The two vagus nerves, drawn as soon as possible, were placed in a bath of Locke solution having the following composition: 154 mM NaCl; 5.5 mM KCl; 2.2 mM CaCl2; 5 mM glucose; 8 mM TRIS, the pH being adjusted at 7.6 by addition of HCl. Nerves were stripped of their epineurium and transferred into a device described by Kosterlitz H. W. et al., [J. Physiol., 183, IP-3P, (1966)] consisting of four compartments separated by means of 3 elastic membranes having a little hole through which the nerve passes. The glucose concentration perfusing a portion of the nerve was 315 mM. The overmaximal electric stimulation by a single shock at 10 seconds intervals elicited a potential visualized on a storage oscilloscope. In the potential the complexes due to the excitation of fibers A, B and C were distinguished. A serotonin solution applied to the nerve causes the dose-dependent fall of the potential for fibers C only. The non variation of the A-B complex when applying serotonin and the test compounds of formula I indicates on one hand the specific action of the substances for receptors relating to fibers C only (5-HT3 receptors) and on the other hand the absence of local-anaesthetic activity. Tests were performed at room temperature (24°-25° C.). The optimum maximum reduction of the potential of fibers C by serotonin resulted to be 44%. This reduction was adopted as maximum effect (100%). For each nerve a dose-response curve was constructed with cumulative doses of serotonin. After having washed serotonin and recovered the initial potential, the nerve was balanced with a fixed concentration of the compound of formula I for 60 minutes and successively the dose-response curve to serotonin was repeated, the compound of formula I being always present in the same concentration. After having applied a serotonin concentration sufficient to produce the highest effect, the preparation was washed and thereafter it was balanced again for 60 minutes with a solution of the same compound of formula I having a higher concentration. The procedure was then repeated. For each dose of the compound of formula I the test was repeated more than 5 times. The negative […] logarithm of the molar concentration of the compound of formula I which gives a 50% reduction of the effect of the agonist substance (pA2) was calculated. In table 7, the pA2 values of some compounds of formula I are reported.

The test system of the next test is rat sciatic nerve. The experiment in a line: local anaesthetic activity on sciatic nerve preparation in vitro. As to conditions: read-out: ED50 (C.L. 95%).
Another test addresses 5-HT2 receptors (Rattus norvegicus, UniProt P14842). Kind of test: affinity for 5-HT2 receptors (3H-spiroperidol binding), rat cortex membranes. As to conditions: 3H-spiroperidol […]; rat frontal cortex membranes.
The subject of another test is 5-HT1 receptors. The experiment in a line: affinity for 5-HT1 receptors (3H serotonin binding), rat cortex membranes. As to conditions: 3H-serotonin 5 nM; rat frontal cortex membranes.
In another test the test system is guinea pig back. The experiment in a line: local anaesthetic activity in the test of the guinea pig back in vivo (intracutaneous infiltration). The conditions noted are these: guinea pig back, cutaneous anaesthesia, 0.25 ml. As for the experimental part: (b) Evaluation of the local anaesthetic activity in the test of the guinea pig back in vivo in comparison with lidocaine.
The local anaesthetic activity was evaluated by the method of intracutaneous infiltration in the guinea pig back as described by Bulbring E. and Wajda I. [(J. Pharmacol. Exp. Ther. 85, 78, (1945)].
Female guinea pigs weighin 400-500 g were treated intracutaneously in 4 points of their back.
At 5 minutes intervals, it was determined the reactivity of the animal to pain in each area by considering the number of responses to 6 pain stimulations.
Compounds of formula I, compound R and lidocaine, dissolved at different concentration in physiological solution adjusting the pH at 7 by addition of NaHCO3 were injected under the skin at the constant volume of 0.25 ml.
The distribution of the treatments in the 4 areas of the back was carried out according to the scheme of the Latin square. Experiments were carried out in blind.
As an example, the ED50 values for compound No. 8, compound R and lidocaine determined at 5, 15 and 30 minutes after the administration are reported in table 4.

Where [4] appears, read: vs acetylcholine, guinea pig small intestine, 37° C., test compounds 10^-5 M, read-out: Antichlonergic activity (pA2) (converted).

pIC50: −log10 of the molar value. Structures can show the parent of a compound that is named as a salt. Where two headings read alike, the source gives them in different places.

T1 sequence (H0W1Z3 1-590): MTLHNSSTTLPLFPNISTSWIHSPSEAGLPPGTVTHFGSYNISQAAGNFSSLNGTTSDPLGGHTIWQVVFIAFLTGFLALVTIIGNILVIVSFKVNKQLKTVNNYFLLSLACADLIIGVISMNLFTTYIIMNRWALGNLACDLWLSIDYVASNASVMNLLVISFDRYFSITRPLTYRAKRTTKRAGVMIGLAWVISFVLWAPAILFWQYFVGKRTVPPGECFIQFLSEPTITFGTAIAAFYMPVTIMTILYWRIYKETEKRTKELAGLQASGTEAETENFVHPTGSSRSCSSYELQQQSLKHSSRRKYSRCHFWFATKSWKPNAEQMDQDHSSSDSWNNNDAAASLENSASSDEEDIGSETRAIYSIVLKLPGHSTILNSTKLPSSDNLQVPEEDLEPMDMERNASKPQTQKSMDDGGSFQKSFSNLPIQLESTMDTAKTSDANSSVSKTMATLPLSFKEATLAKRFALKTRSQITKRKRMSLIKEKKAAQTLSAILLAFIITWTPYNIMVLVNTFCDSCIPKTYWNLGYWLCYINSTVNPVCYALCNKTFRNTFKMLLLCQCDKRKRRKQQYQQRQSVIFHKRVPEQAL
5-HT2 receptors, sequence (P14842 whole entry): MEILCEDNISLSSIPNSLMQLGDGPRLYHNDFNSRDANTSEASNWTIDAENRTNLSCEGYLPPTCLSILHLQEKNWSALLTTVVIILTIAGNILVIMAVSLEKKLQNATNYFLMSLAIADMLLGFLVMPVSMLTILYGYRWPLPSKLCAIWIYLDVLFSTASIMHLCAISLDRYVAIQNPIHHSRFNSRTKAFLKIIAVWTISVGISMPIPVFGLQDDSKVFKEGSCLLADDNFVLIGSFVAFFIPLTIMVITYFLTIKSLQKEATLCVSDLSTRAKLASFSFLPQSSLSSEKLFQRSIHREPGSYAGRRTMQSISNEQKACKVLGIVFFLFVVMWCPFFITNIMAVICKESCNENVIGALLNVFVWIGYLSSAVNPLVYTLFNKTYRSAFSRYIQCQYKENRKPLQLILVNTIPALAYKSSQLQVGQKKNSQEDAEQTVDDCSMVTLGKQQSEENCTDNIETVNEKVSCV

`CN1[C@@H]2CC[C@H]1C[C@@H](OC(=O)c1cc(OCc3ccccc3)no1)C2` [Compound 3, 3-benzyloxyisoxazole-5-carboxylic acid 3-(endo-8-methyl-8-azabicyclo[3,2,1]octyl) ester hydrochloride]: the Kb is 2 µM in test [1] and 2.51 µM in [2].

On to `Cc1cc(C(=O)O[C@H]2C[C@H]3CC[C@@H](C2)N3C)on1` [Compound 5, 3-methylisoxazole-5-carboxylic acid 3-(endo-8-methyl-8-azabicyclo[3,2,1]octyl) ester hydrochloride], for which the Kb is 31.6 µM in test [1], 12.6 µM in test [2] and 0.00158 µM on 5-HT3 receptors. Further, the “Displacement activity at benzodiazepine receptors” value in [3] is “inactive”. The “Displacement activity at receptors of Ca++” value in the test on Ca^++ receptors is “inactive”.

Take `COc1cc(C(=O)O[C@H]2C[C@H]3CC[C@@H](C2)N3C)on1` [Compound 6, 3-methoxyisoxazole-5-carboxylic acid 3-(endo-8-methyl-8-azabicyclo[3,2,1]octyl) ester hydrochloride]: the results for the Kb (in [1]; in test [2]; at 5-HT3 receptors) were 12.6 µM, 6.31 µM and 0.00126 µM, respectively. Besides, the pIC50 in the test with rat sciatic nerve (rat, sciatic nerve, 8 min) was less than 1.82.

For the compound `Cc1cc(C(=O)OC2CCN(C)CC2)no1` [Compound 9, 5-methylisoxazole-3-carboxylic acid 4-(1-methylpiperidinyl) ester hydrochloride], the Kb in test [1] (setting [4]) is 25.1 µM; in test [2], 10 µM. The pIC50 in the test on rat sciatic nerve (rat sciatic nerve in vitro, 8 minutes contact) was less than 1.82.

Take `Cc1cc(C(=O)OC2CCCN(C)C2)no1` (stereo not shown) [Compound 10, 5-methylisoxazole-3-carboxylic acid 3-(1-methylpiperidinyl) ester hydrochloride]: the values for the Kb in [1] (setting [4]) and in [2] were 50.1 µM and 200 µM, respectively. Besides, the “Affinity (IC50) to 5-HT2 receptors” value at 5-HT2 receptors is “inactive”.

For `CCN1CCCC(NC(=O)c2cc(C)on2)C1` (stereo not shown) [Compound 14, N-(1-ethyl-3-piperidinyl)-5-methylisoxazole-3-carboxamide], the Kb in test [2] is 316 µM.

With `Cc1cc(C(=O)N[C@@H]2C[C@H]3CC[C@@H](C2)N3C)no1` [Compound 15, N-[3-(exo-8-methyl-8-azabicyclo[3,2,1]octyl)]-5-methylisoxazole-3-carboxamide], the Kb in [2] was 50.1 µM.

Turning to `Cc1cc(C(=O)N[C@H]2C[C@H]3CC[C@@H](C2)N3C)no1` [Compound 16, N-[3-(endo-8-methyl-8-azabicyclo[3,2,1]octyl)]-5-methylisoxazole-3-carboxamide], the Kb in test [1] was 126 µM; in test [2], 7.94 µM.

With `Cc1cc(C(=O)NC2CN3CCC2CC3)no1` (stereo not shown) [Compound 17, N-[3-(1-azabicyclo[2,2,2]octyl)]-5-methylisoxazole-3-carboxamide], the Kb in [2] was 50.1 µM.

Regarding `Cc1cc(C(=O)O[C@H]2C[C@H]3CC[C@@H](C2)[N+]3(C)C)no1` [Compound 18, endo-8,8-dimethyl-3-(5-methylisoxazole-3-carbonyloxy)-8-azoniabicyclo[3,2,1]octane bromide], the values for the Kb in test [1] and in [2] were 6.31 µM and 15.8 µM, respectively. The pIC50 in the test on rat sciatic nerve (rat, sciatic nerve, 8 min) is less than 1.82. In addition, the “Affinity (IC50) to 5-HT1 receptors” value in the test with 5-HT1 receptors was “inactive”. The “Affinity (IC50) to 5-HT2 receptors” value at 5-HT2 receptors is “inactive”.

On to `CN1C(=O)CN=C(c2ccccc2)c2cc(Cl)ccc21` [diazepam, reference compound], for which the “Displacement activity at benzodiazepine receptors” value in test [3] is 4.

Take `O=C(c1ccc(F)cc1)C1CCN(CCn2c(=O)[nH]c3ccccc3c2=O)CC1` [ketanserine, reference compound]: the pIC50 on 5-HT1 receptors is 5.00.

Regarding `CCN(CC)CC(=O)Nc1c(C)cccc1C` [lidocaine], the pIC50 in the test with rat sciatic nerve (rat, sciatic nerve, 8 min) is 3.22. For the same compound, in the test with guinea pig back (5 min. after administration), the “ED50 (C.L. 95%), 5 min.” value is reported as 5.8 (4.9-6.8) mM. Moreover, in the test with guinea pig back (15 min. after administration), the “ED50 (C.L. 95%), 15 min.” value is 7.6 (6.8-8.4) mM. For the same compound, the “ED50 (C.L. 95%), 30 min.” value with guinea pig back (30 min. after administration) is listed as 15.2 (13.8-16.6) mM.

As to `NCCc1c[nH]c2ccc(O)cc12` [serotonin, reference compound], the “optimum maximum reduction of the potential of fibers C” value at 5-HT3 receptors (serotonin applied to rabbit vagus nerve, 24°-25° C.) is 44%.
